Drawing on patent publication US20130137644A1, “CELL PENETRATING PEPTIDE CONJUGATES FOR DELIVERING OF NUCLEIC ACIDS INTO A CELL” (priority 2005, published 2013), this text covers body weight loss for one molecule.

SMILES strings stand for the structures.

This data set is described as follows: Body weight evolution, apparent toxicity during the efficacy experiment. It is filed as in vivo, NMRI nude mice. The conditions noted are these: 48.15 μmol/kg i.v. Q1D5; course of experiment 80 days. The method, then:
Animal experiments were performed according to ethical guidelines of animal experimentation. The day of the first injection (6 days after the graft), mice were randomized in 7 groups. Mice were treated by intravenous injection in the lateral tail vein at a constant volume of 10 microL/g. Groups were as follows:
During the course of experiment body weight and tumor size were controlled every 2 or 3 days (except weekends). […] Mortality of animals was recorded every day except the weekend.
During the efficacy experiment, body weight was monitored twice weekly. Treatment toxicity was assessed based on clinical signs and body weight evolution.

For `CCc1c2c(nc3ccc(OC(=O)N4CCC(N5CCCCC5)CC4)cc13)-c1cc3c(c(=O)n1C2)COC(=O)[C@]3(O)CC` [irinotecan, Irinotecan], the body weight loss is given as approximately 20%.
